Results from patent US20090270416A1, “N-OXIDES OF DIARYLUREA DERIVATIVES AND THEIR USE AS Chk1 INHIBITORS FOR THE TREATMENT OF CANCER” (SENTINEL ONCOLOGY LIMITED, priority 2006, published 2009).
Values belong to the compound of their own block, whether it stands above or below them.

What was measured:
CHK1 (h) = biological target: T1, CHK1 (h) (Homo sapiens, UniProt O14757); test: Chk-1 kinase inhibiting activity (Upstate radiometric assay); assay type: biochemical
T1 construct: purchased Upstate Ltd (assay run at Upstate)
T1 sequence (O14757 1-476): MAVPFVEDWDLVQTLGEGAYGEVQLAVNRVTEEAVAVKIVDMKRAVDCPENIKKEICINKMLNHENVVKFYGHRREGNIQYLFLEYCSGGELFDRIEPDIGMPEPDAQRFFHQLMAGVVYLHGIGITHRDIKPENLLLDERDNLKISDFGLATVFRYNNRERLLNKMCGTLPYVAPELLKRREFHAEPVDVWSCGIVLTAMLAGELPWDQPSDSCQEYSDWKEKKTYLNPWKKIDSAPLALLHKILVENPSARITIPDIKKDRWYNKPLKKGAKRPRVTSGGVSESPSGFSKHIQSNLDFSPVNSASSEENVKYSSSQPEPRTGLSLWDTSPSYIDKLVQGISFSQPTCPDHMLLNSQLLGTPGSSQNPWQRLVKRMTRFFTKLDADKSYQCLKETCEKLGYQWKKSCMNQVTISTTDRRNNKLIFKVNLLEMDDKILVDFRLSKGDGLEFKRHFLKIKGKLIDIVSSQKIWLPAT
Method: The N-oxide compounds of the invention and their tertiary amine precursors were tested for activity against the Chk-1 kinase.
The Chk-1 assay was conducted at Upstate Ltd, Gemini Crescent, Dundee Technology Park, Dundee, DD2 1 SW, UK in accordance with the protocol set out below. In a final reaction volume of 25 μl, CHK1 (h) (5-10 mU) is incubated with 8 mM MOPS pH 7.0, 0.2 mM EDTA, 200 μM […], 10 mM MgAcetate and γ-33P-ATP] (specific activity approx. 500 cpm/pmol, concentration as required). The reaction is initiated by the addition of the MgATP mix. After incubation for 40 minutes at room temperature, the reaction is stopped by the addition of 5 μl of a 3% phosphoric acid solution. 10 μl of the reaction mixture is then spotted onto a P30 filtermat and washed three times for 5 minutes in 75 mM phosphoric acid and once in methanol prior to drying and scintillation counting.

[1] = biological target: T2, human potassium channel hERG (Homo sapiens, UniProt Q12809); test: hERG binding activity ([3H] astemizole displacement, HEK-293 membranes); settings: 1.5 nM [3H] astemizole; for IC50: 60 minutes at 25° C.; for HERG Binding % @ 100 uM (extent of binding): @ 100 uM test compound
T2 construct: expressed in transfected cells; host or cells: HEK-293
T2 sequence (Q12809 whole entry): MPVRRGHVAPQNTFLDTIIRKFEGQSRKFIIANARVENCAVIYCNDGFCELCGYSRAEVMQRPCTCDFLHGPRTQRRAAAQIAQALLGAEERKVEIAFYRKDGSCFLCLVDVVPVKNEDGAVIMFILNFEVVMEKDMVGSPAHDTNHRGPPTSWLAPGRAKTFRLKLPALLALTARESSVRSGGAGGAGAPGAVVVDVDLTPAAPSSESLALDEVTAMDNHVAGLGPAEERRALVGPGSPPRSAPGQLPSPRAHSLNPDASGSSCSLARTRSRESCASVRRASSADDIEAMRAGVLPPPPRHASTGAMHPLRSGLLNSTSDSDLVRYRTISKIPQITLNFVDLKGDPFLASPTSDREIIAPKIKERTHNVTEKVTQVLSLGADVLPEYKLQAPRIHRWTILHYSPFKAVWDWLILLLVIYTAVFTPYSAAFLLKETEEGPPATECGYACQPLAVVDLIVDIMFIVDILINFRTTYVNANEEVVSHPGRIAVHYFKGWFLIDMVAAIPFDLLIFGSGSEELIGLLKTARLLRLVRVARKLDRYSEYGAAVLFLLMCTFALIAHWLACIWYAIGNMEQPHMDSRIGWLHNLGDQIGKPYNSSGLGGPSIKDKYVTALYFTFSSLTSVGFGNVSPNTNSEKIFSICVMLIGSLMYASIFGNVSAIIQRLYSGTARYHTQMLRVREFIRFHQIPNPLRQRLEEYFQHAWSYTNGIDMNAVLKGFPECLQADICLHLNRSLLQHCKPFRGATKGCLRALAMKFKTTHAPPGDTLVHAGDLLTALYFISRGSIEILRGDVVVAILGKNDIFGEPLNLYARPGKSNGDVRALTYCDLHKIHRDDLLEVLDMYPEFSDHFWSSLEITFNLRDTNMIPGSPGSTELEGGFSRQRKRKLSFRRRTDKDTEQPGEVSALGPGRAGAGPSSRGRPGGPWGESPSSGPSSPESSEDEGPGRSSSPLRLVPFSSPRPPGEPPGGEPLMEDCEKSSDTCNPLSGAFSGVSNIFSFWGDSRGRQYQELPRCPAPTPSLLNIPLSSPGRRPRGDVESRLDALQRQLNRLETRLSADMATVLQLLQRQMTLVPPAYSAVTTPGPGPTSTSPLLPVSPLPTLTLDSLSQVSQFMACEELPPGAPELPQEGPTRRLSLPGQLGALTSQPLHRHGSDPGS
Method: The abilities of the N-oxide compounds of the invention and their tertiary amine precursors were tested using the assay described below.
Human recombinant HEK-293 cells stably transfected with a plasmid encoding the human potassium channel hERG were used to prepare membranes in modified HEPES pH 7.4 buffer using standard techniques. A 10 μg aliquot of membrane was incubated with 1.5 nM [^3H] astemizole in the presence of varying concentrations of test compound for 60 minutes at 25° C. The membranes were then filtered and washed three times and the filters were counted to determine the [^3H] astemizole specifically bound. From the counts, the extent of binding of the test compound and, in some cases, the IC50 values of the test compounds, were determined.

hERG potassium channel = biological target: T3, hERG potassium channel (Homo sapiens, UniProt Q12809); test: Functional hERG assay (patch clamp, HEK-293 cells); assay type: cell-based; settings: 5-point dose response, triplicate
T3 construct: expressed in transfected cells; host or cells: HEK-293
T3 sequence (Q12809 whole entry): as above
Method: The N-oxide compounds of the invention and their tertiary amine precursors were each tested for hERG inhibiting activity using the method of Zhou Z, Gong Q, Ye B, Fan Z, Makielski J C, Robertson G A, January C T. Biophys J. 1998 January; 74(1):230-41.
Test compounds were tested in triplicate in a 5-point dose response curve on HEK-293 cells stably expressing the hERG potassium channel. Potassium current was measured using the patch clamp technique on a Molecular Devices Patch Express 7000. hERG channels were activated by 2 second pulses to +20 mV from a holding potential of −80 mV, and peak tail currents were recorded upon repolarization to −50 mV. This voltage-clamp pulse protocol was performed continuously during the experiment (vehicle control, test compound, washout, and positive control additions). An interpulse interval of 15 seconds allowed recovery from any residual inactivation. Test compounds were incubated with cells between 3-8 minutes until the current reached a steady state level, defined by a Standard Deviation of 0.01. After the final test compound concentration was tested, test compound was washed out with continuous perfusion of extracellular solution for 3 minutes, followed by application of positive control (10 μM Cisparide).
Test compounds were diluted in 100% DMSO at 1000× the highest concentration to be tested, vortexed, and sonicated. Visual inspection determined that compounds were completely solubilized. Test compounds were then diluted into glass vials in 100% DMSO for all test concentrations at 1000× the final concentration to be tested and vortexed. Test compounds were then diluted 1:1000 into extracellular solution and vortexed to achieve final concentration for testing. Final DMSO concentration was 0.1% for all concentrations of test compounds, Vehicle (negative) control, and Cisapride (positive) control in extracellular solution. The compositions of the solutions used were as follows:
Intracellular Soln (mM): KCl 130, EDTA 5, MgCl2 5, HEPES10, Na-ATP 5, pH=7.2 Extracellular Soln (mM): NaCl 137, KCl 4, CaCl2 1.8, MgCl2 1, Dextrose 11, HEPES 10, pH=7.4

Aurora-A(h) = biological target: T4, Aurora-A(h) (Homo sapiens, UniProt O14965); test: Kinase selectivity screen (Upstate); assay type: biochemical; settings: 10 μM compound; ATP 15 μM; N = 2
T4 construct: purchased Upstate
Method: (§1) The compound of Example 1F was tested (Upstate) against a number of other kinases and the results are set out in Table 5 below.

CDK2/cyclinE(h) = biological target: T5, CDK2/cyclinE(h) (Homo sapiens, UniProt P24941); test: Kinase selectivity screen (Upstate); assay type: biochemical; settings: 10 μM compound; ATP 120 μM; N = 2
T5 construct: purchased Upstate
Method: as §1

CHK2(h) = biological target: T6, CHK2(h) (Homo sapiens, UniProt O96017); test: Kinase selectivity screen (Upstate); assay type: biochemical; settings: 10 μM compound; ATP 70 μM; N = 2
T6 construct: purchased Upstate
Method: as §1

EGFR(h) = biological target: T7, EGFR(h) (Homo sapiens, UniProt P00533); test: Kinase selectivity screen (Upstate); assay type: biochemical; settings: 10 μM compound; ATP 10 μM; N = 2
T7 construct: purchased Upstate
Method: as §1

FGFR1(h) = biological target: T8, FGFR1(h) (Homo sapiens, UniProt P11362); test: Kinase selectivity screen (Upstate); assay type: biochemical; settings: 10 μM compound; ATP 200 μM; N = 2
T8 construct: purchased Upstate
Method: as §1

Flt3(h) = biological target: T9, Flt3(h) (Homo sapiens, UniProt P36888); test: Kinase selectivity screen (Upstate); assay type: biochemical; settings: 10 μM compound; ATP 200 μM; N = 2
T9 construct: purchased Upstate
Method: as §1

Fms(h) = biological target: T10, Fms(h) (Homo sapiens, UniProt P07333); test: Kinase selectivity screen (Upstate); assay type: biochemical; settings: 10 μM compound; ATP 200 μM; N = 2
T10 construct: purchased Upstate
Method: as §1

IGF-1R(h) = biological target: T11, IGF-1R(h) (Homo sapiens, UniProt P08069); test: Kinase selectivity screen (Upstate); assay type: biochemical; settings: 10 μM compound; ATP 200 μM; N = 2
T11 construct: purchased Upstate
T11 sequence (P08069 31-1367): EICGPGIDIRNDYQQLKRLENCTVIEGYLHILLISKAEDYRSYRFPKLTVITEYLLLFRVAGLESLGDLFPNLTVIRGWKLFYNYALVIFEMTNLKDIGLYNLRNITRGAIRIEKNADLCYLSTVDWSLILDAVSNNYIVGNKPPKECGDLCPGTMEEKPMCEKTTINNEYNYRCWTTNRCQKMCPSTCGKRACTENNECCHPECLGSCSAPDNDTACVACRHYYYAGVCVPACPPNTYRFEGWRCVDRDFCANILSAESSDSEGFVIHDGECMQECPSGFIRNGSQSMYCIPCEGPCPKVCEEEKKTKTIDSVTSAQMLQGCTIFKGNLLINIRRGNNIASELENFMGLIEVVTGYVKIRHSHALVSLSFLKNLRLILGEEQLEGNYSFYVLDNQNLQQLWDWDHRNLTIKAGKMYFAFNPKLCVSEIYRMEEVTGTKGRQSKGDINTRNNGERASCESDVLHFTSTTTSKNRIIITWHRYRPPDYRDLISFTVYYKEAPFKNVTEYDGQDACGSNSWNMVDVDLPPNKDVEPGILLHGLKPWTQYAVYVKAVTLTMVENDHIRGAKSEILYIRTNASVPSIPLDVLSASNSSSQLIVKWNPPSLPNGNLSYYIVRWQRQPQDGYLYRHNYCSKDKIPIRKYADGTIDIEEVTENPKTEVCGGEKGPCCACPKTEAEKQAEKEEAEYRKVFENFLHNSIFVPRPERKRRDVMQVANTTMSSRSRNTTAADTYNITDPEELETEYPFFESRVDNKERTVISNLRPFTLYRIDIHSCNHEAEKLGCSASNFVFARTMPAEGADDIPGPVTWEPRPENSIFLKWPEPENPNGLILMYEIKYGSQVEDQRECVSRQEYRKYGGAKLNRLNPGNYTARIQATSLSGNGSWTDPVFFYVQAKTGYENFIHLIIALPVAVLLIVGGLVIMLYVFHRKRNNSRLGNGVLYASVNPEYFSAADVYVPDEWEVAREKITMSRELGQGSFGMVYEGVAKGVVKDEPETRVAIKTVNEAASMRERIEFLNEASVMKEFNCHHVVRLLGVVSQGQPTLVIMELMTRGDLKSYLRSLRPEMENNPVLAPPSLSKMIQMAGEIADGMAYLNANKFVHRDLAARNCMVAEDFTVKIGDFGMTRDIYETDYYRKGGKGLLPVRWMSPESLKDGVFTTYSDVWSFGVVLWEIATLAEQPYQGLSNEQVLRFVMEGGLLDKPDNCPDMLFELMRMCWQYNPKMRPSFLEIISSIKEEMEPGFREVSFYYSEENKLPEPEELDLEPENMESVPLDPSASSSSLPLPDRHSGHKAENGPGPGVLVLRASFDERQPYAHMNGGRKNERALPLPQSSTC
Method: as §1

JNK1α1(h) = biological target: T12, JNK1α1(h) (Homo sapiens, UniProt P45983); test: Kinase selectivity screen (Upstate); assay type: biochemical; settings: 10 μM compound; ATP 45 μM; N = 2
T12 construct: purchased Upstate
T12 sequence (P45983 1-384 isoform P45983-2): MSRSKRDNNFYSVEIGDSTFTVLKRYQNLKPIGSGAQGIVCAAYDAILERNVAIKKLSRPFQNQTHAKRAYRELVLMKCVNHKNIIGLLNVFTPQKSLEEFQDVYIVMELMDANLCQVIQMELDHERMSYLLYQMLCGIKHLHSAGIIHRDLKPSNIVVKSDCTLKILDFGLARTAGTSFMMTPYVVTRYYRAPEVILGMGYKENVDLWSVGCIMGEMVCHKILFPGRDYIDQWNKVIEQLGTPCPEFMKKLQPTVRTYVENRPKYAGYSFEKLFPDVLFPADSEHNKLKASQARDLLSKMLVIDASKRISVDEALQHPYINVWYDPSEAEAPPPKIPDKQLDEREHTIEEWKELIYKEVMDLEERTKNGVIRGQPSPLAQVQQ
Method: as §1

KDR(h) = biological target: T13, KDR(h) (Homo sapiens, UniProt P35968); test: Kinase selectivity screen (Upstate); assay type: biochemical; settings: 10 μM compound; ATP 90 μM; N = 2
T13 construct: purchased Upstate
Method: as §1

MAPK2(h) = biological target: T14, MAPK2(h) (Homo sapiens, UniProt P28482); test: Kinase selectivity screen (Upstate); assay type: biochemical; settings: 10 μM compound; ATP 155 μM; N = 2
T14 construct: purchased Upstate
Method: as §1

MEK1(h) = biological target: T15, MEK1(h) (Homo sapiens, UniProt Q02750); test: Kinase selectivity screen (Upstate); assay type: biochemical; settings: 10 μM compound; ATP 10 μM; N = 2
T15 construct: purchased Upstate
Method: as §1

NEK2(h) = biological target: T16, NEK2(h) (Homo sapiens, UniProt P51955); test: Kinase selectivity screen (Upstate); assay type: biochemical; settings: 10 μM compound; ATP 120 μM; N = 2
T16 construct: purchased Upstate
Method: as §1

PDGFRβ(h) = biological target: T17, PDGFRβ(h) (Homo sapiens, UniProt P09619); test: Kinase selectivity screen (Upstate); assay type: biochemical; settings: 10 μM compound; ATP 200 μM; N = 2
T17 construct: purchased Upstate
Method: as §1

PKA(h) = biological target: T18, PKA(h) (Homo sapiens, UniProt P17612); test: Kinase selectivity screen (Upstate); assay type: biochemical; settings: 10 μM compound; ATP 10 μM; N = 2
T18 construct: purchased Upstate
Method: as §1

PKCθ(h) = biological target: T19, PKCθ(h) (Homo sapiens, UniProt Q04759); test: Kinase selectivity screen (Upstate); assay type: biochemical; settings: 10 μM compound; ATP 15 μM; N = 2
T19 construct: purchased Upstate
T19 sequence (Q04759 whole entry): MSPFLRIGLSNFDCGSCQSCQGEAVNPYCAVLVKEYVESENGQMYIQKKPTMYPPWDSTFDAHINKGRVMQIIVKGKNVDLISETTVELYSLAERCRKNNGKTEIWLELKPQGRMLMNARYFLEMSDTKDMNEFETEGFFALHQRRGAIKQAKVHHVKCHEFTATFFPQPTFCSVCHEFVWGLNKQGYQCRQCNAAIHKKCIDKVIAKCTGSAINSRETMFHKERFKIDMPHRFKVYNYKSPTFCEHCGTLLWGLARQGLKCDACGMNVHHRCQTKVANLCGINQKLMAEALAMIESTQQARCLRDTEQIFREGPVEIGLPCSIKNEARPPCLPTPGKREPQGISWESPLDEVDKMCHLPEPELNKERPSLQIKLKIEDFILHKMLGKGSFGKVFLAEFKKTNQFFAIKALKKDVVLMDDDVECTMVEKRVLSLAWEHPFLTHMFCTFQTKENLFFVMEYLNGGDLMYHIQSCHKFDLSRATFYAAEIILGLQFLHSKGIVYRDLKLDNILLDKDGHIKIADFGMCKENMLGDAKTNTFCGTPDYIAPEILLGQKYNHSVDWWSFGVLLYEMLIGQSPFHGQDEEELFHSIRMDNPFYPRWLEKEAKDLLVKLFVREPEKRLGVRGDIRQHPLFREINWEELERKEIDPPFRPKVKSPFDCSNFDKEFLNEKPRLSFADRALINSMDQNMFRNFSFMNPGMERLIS
Method: as §1

Pim-1(h) = biological target: T20, Pim-1(h) (Homo sapiens, UniProt P11309); test: Kinase selectivity screen (Upstate); assay type: biochemical; settings: 10 μM compound; ATP 90 μM; N = 2
T20 construct: purchased Upstate
T20 sequence (P11309 whole entry): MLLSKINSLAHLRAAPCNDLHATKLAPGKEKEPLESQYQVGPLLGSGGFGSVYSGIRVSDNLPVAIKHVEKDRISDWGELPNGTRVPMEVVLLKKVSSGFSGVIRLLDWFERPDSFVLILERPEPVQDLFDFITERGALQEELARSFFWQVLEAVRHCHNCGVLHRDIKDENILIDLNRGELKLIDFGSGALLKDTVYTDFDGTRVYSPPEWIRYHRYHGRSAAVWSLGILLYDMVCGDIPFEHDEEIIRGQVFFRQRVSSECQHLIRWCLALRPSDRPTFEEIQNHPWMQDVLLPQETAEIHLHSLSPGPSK
Method: as §1

Tie2(h) = biological target: T21, Tie2(h) (Homo sapiens, UniProt Q02763); test: Kinase selectivity screen (Upstate); assay type: biochemical; settings: 10 μM compound; ATP 200 μM; N = 2
T21 construct: purchased Upstate
Method: as §1

Yes(h) = biological target: T22, Yes(h) (Homo sapiens, UniProt P07947); test: Kinase selectivity screen (Upstate); assay type: biochemical; settings: 10 μM compound; ATP 45 μM; N = 2
T22 construct: purchased Upstate
Method: as §1

ZAP-70(h) = biological target: T23, ZAP-70(h) (Homo sapiens, UniProt P43403); test: Kinase selectivity screen (Upstate); assay type: biochemical; settings: 10 μM compound; ATP 15 μM; N = 2
T23 construct: purchased Upstate
Method: as §1

cKit(h) = biological target: T24, cKit(h) (Homo sapiens, UniProt P10721); test: Kinase selectivity screen (Upstate); assay type: biochemical; settings: 10 μM compound; ATP 200 μM; N = 2
T24 construct: purchased Upstate
Method: as §1

cSRC(h) = biological target: T25, cSRC(h) (Homo sapiens, UniProt P12931); test: Kinase selectivity screen (Upstate); assay type: biochemical; settings: 10 μM compound; ATP 200 μM; N = 2
T25 construct: purchased Upstate
Method: as §1

other kinases = test: Kinase selectivity screen (Upstate), panel as a whole; assay type: biochemical, human; settings: 10 μM compound; summary of Table 5
Method: as §1

IC50 (CHK1 (h)): 41 nM
Compound: CN(C)CCCOc1ccc(Cl)cc1NC(=O)Nc1cnccn1 [Example 1C, 1-[5-Chloro-2-(3-dimethyloxyamino-propoxy)-phenyl]-3-pyrazin-2-yl-urea]
IC50 [1]: 5030 nM
IC50 (hERG potassium channel): 108 nM

IC50 (CHK1 (h)): 71 nM
inhibition at 10 µM (Aurora-A(h)): 14%
inhibition at 10 µM (CDK2/cyclinE(h)): 0%
inhibition at 10 µM (CHK2(h)): 71%
inhibition at 10 µM (EGFR(h)): 0%
inhibition at 10 µM (FGFR1(h)): 92%
inhibition at 10 µM (Flt3(h)): 73%
inhibition at 10 µM (Fms(h)): 12%
inhibition at 10 µM (IGF-1R(h)): 36%
inhibition at 10 µM (JNK1α1(h)): 0%
inhibition at 10 µM (KDR(h)): 38%
inhibition at 10 µM (MAPK2(h)): 0%
inhibition at 10 µM (MEK1(h)): 0%
inhibition at 10 µM (NEK2(h)): 0%
inhibition at 10 µM (PDGFRβ(h)): 1%
inhibition at 10 µM (PKA(h)): 0%
inhibition at 10 µM (PKCθ(h)): 37%
inhibition at 10 µM (Pim-1(h)): 0%
inhibition at 10 µM (Tie2(h)): 11%
inhibition at 10 µM (Yes(h)): 0%
inhibition at 10 µM (ZAP-70(h)): 5%
inhibition at 10 µM (cKit(h)): 0%
inhibition at 10 µM (cSRC(h)): 11%
activity against most other kinases apart from CHK2, FGFR1 and Flt3 (other kinases): largely inactive or only poorly active
Compound: C[N+](C)([O-])CCCOc1ccc(Cl)cc1NC(=O)Nc1cnccn1 [Example 1F]
HERG Binding % @ 100 uM (extent of binding) [1]: 35% @ 100 uM
IC50 (hERG potassium channel): 26700 nM

IC50 (CHK1 (h)): 51 nM
Compound: Cc1cnc(NC(=O)Nc2cc(Cl)ccc2OCCCN(C)C)cn1 [Example 2B, 1-[5-Chloro-2-(3-dimethylamino-propoxy)-phenyl]-3-(5-methyl-pyrazin-2-yl)-urea]
IC50 [1]: 2980 nM
IC50 (hERG potassium channel): 610 nM

IC50 (CHK1 (h)): 128 nM
Compound: Cc1cnc(NC(=O)Nc2cc(Cl)ccc2OCCC[N+](C)(C)[O-])cn1 [Example 2C, 1-[5-Chloro-2-(3-dimethyloxyamino-propoxy)-phenyl]-3-(5-methyl-pyrazin-2-yl)-urea]
HERG Binding % @ 100 uM (extent of binding) [1]: 3% @ 100 uM
IC50 (hERG potassium channel): > 30000 nM
